Reference: patent US20150140085A1, “FORMULATIONS COMPRISING IBRUTINIB” (PRINCIPIA BIOPHARMA INC., priority 2012, published 2015)

Assays:
[1] = Determination of bioavailability, stomach (oral gavage) v. intraduodenal administration; type: in vivo, Sprague dawley rats; details: 20 mg/kg in Captex 355, fed female rats; for AUC / Cmax: plasma
Experimental: Fed female Sprague dawley rats, 225-250 g with surgically implanted intra-duodenal catheters were obtained commercially. Rats were dosed solutions of ibrutinib via bolus injection: oral gavage was done to measure exposure after oral dosing, or dosing via administration through the intra-duodenal catheter to measure exposure bypassing the stomach. Ibrutinib was dosed at 20 mg/kg at a dose volume of 2 ml/kg. Blood was withdrawn at time points out to 24 hours and Ibrutinib quantitated via LC/MS/MS to obtain plasma concentrations. PK parameters were calculated via commercially available software and measures of exposure were used to assess differences in dosing routes.

[2] = rats, reported; cited from earlier work

F (bioavailability) ([1]; ID (intra-duodenal catheter)): 100%
AUC ([1]; ID (intra-duodenal catheter)): 4943 ng·h/mL
Cmax ([1]; ID (intra-duodenal catheter)): 884 ng/mL
F (bioavailability) ([1]; PO (oral gavage)): 21%
AUC ([1]; PO (oral gavage)): 998 ng·h/mL
Cmax ([1]; PO (oral gavage)): 243 ng/mL
Substance: ibrutinib
oral bioavailability [2]: 22.8%
